In patent publication US12378249B2, “Isoquinoline compounds and uses thereof” (Genentech, Inc., priority 2018, dated 2025):
Structures can show the parent of a compound that is named as a salt.

target: HPK1 (Homo sapiens (Human), UniProt Q92918, S171E/T165E); assay: HPK1-FL HTRF Enzymatic Assay (HTRF); assay type: biochemical; details: HPK full length T165E S171E 0.125 nM, ATP 1 mM, Biotin-SLP76 100 nM, read-out: HPK1 Ki (nM), H = HTRF
Summary of the method: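 Ki derived from % activity calculated from the TR-FRET 665/620 ratio, using Eu-anti-pSLP76 and SA-XL665 detection added for 60 min. Reaction: compound preincubated 30 min with full-length double-mutant HPK1, then 60 min with Biotin-SLP-76 and 1 mM ATP, pH 7.5 HEPES buffer.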

Sequence of HPK1 (Q92918 whole entry T165E/S171E): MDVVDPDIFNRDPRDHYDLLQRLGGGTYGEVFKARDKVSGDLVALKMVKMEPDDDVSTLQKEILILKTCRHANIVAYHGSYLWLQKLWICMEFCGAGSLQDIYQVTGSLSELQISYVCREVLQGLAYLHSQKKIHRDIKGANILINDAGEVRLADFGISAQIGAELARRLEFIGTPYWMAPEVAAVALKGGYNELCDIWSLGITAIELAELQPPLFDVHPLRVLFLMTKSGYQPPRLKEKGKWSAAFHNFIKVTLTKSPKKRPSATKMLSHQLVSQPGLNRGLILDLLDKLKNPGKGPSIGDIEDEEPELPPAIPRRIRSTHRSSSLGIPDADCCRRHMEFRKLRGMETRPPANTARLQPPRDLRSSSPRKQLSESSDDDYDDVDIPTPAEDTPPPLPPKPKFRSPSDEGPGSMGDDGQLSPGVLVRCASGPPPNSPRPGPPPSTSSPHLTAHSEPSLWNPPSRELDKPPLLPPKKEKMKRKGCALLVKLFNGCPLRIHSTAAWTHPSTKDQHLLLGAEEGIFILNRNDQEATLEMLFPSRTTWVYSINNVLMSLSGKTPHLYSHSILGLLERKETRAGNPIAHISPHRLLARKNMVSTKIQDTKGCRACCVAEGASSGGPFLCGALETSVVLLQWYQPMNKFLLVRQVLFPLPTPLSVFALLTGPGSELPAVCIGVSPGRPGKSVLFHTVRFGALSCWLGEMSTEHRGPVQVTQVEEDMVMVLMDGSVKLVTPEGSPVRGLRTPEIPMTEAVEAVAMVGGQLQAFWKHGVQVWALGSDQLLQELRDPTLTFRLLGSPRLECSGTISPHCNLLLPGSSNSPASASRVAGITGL

| Ki | Structure (SMILES) |
| --- | --- |
| 0.013 nM | Cc1c(N)cncc1-c1cc2cc(Nc3cc4n(n3)CC(=O)N(C(C)(C)C)CC4F)ncc2cc1F (single isomer, unassigned) [Compound 167b] |
| 23.7 nM | Cc1cc(S(C)(=N)=O)ncc1-c1cc2cc(Nc3cc4n(n3)CC(=O)N(C)CC4)ncc2cc1F (stereo not drawn) [Compound 178, 2-((7-fluoro-6-(4-methyl-6-(S-methylsulfonimidoyl)pyridin-3-yl)isoquinolin-3-yl)amino)-6-methyl-5,6-dihydro-4H-pyrazolo[1,5-d][1,4]diazepin-7(8H)-one] |
| 37 nM | CNCc1cncc(-c2cc3cc(Nc4cc5n(n4)CC(=O)N(C)CC5)ncc3cc2F)c1C [Compound 210, 2-((7-fluoro-6-(4-methyl-5-((methylamino)methyl)pyridin-3-yl)isoquinolin-3-yl)amino)-6-methyl-5,6-dihydro-4H-pyrazolo[1,5-d][1,4]diazepin-7(8H)-one] |
| 4.6 nM | Cc1ccncc1-c1cc2cc(Nc3cc4n(n3)CC(=O)N(C)CC4)ncc2c(Cl)c1F [Compound 110, 2-[[8-Chloro-7-fluoro-6-(4-methylpyridin-3-yl)isoquinolin-3-yl]amino]-6-methyl-4H,5H,6H,7H,8H-pyrazolo[1,5-d][1,4]diazepin-7-one] |
| 0.033 nM | Cc1c(-c2cc3cc(Nc4cc5n(n4)CC(=O)N(C(C)C)C[C@H]5O)ncc3cc2F)cnc2c1NCCO2 (single isomer, unassigned) [Compound 141a] |
| 0.013 nM | Cc1c(N)cncc1-c1cc2cc(Nc3cc4n(n3)CC(=O)NCC43CC3)ncc2cc1F [Compound 224, 2′-((6-(5-amino-4-methylpyridin-3-yl)-7-fluoroisoquinolin-3-yl)amino)-5′,6′-dihydrospiro[cyclopropane-1,4′-pyrazolo[1,5-d][1,4]diazepin]-7′(8′H)-one] |
| 0.017 nM | COCCN1CCc2cc(Nc3cc4cc(-c5cncc(N)c5C)c(F)cc4cn3)nn2CC1=O [Compound 156, 2-((6-(5-amino-4-methylpyridin-3-yl)-7-fluoroisoquinolin-3-yl)amino)-6-(2-methoxyethyl)-5,6-dihydro-4H-pyrazolo[1,5-d][1,4]diazepin-7(8H)-one] |
| 0.013 nM | Cc1c(-c2cc3cc(Nc4cc5n(n4)CC(=O)N(CCO)CC5)ncc3cc2F)cnc2c1NCCO2 [Compound 145, 2-((7-fluoro-6-(8-methyl-2,3-dihydro-1H-pyrido[2,3-b][1,4]oxazin-7-yl)isoquinolin-3-yl)amino)-6-(2-hydroxyethyl)-5,6-dihydro-4H-pyrazolo[1,5-d][1,4]diazepin-7(8H)-one] |
| 0.38 nM | Cc1c(-c2cc(F)c3cnc(Nc4cc5n(n4)CC(=O)N(C)CC5)cc3c2)cnc2c1NCC[C@]2(C)O (single isomer, unassigned) [Compound 231b] |
| 119 nM | Cc1[nH]ncc1-c1cc2cc(Nc3cc4n(n3)CC(=O)N(C)CC4)ncc2c(O)c1F [Compound 202, 2-((7-fluoro-8-hydroxy-6-(5-methyl-1H-pyrazol-4-yl)isoquinolin-3-yl)amino)-6-methyl-5,6-dihydro-4H-pyrazolo[1,5-d][1,4]diazepin-7(8H)-one] |
| 0.18 nM | Cc1c(CS(C)(=O)=O)cncc1-c1cc2cc(Nc3cc4n(n3)CC(=O)N(C)CC4)ncc2cc1F [Compound 204, 2-((7-fluoro-6-(4-methyl-5-((methylsulfonyl)methyl)pyridin-3-yl)isoquinolin-3-yl)amino)-6-methyl-5,6-dihydro-4H-pyrazolo[1,5-d][1,4]diazepin-7(8H)-one] |
| 0.014 nM | Cc1c(-c2cc3cc(Nc4cc5n(n4)CC(=O)N(C(C)C)CC5)ncc3cc2F)cnc2c1NCCO2 [Compound 116, 2-((7-fluoro-6-(8-methyl-2,3-dihydro-1H-pyrido[2,3-b][1,4]oxazin-7-yl)isoquinolin-3-yl)amino)-6-isopropyl-5,6-dihydro-4H-pyrazolo[1,5-d][1,4]diazepin-7(8H)-one] |
| 0.11 nM | Cc1c(-c2cc3cc(Nc4cc5n(n4)CC(=O)NCC5)ncc3cc2F)cnc2c1NCCC2O (racemic) [Compound 201, (+/-)-2-((7-fluoro-6-(8-hydroxy-4-methyl-5,6,7,8-tetrahydro-1,5-naphthyridin-3-yl)isoquinolin-3-yl)amino)-5,6-dihydro-4H-pyrazolo[1,5-d][1,4]diazepin-7(8H)-one formate salt] |
| 0.39 nM | Cc1c(N)cncc1-c1cc2cc(Nc3cc4n(n3)CC(=O)N(C(C)C)CC4)ncc2cc1C#N [Compound 169, 6-(5-amino-4-methylpyridin-3-yl)-3-((6-isopropyl-7-oxo-5,6,7,8-tetrahydro-4H-pyrazolo[1,5-d][1,4]diazepin-2-yl)amino)isoquinoline-7-carbonitrile] |
| 1.7 nM | Cc1c(-c2cc3cc(Nc4cc5n(n4)CS(=O)(=O)N(C)C5)ncc3cc2F)cnc2c1NCC[C@H]2O (single isomer, unassigned) [Compound 242b] |
| 0.013 nM | Cc1c(-c2cc3cc(Nc4cc5n(n4)CC(=O)N(C)CC54CC4)ncc3cc2F)cnc2c1NCC[C@@H]2O (single isomer, unassigned) [Compound 205b] |
| 75 nM | Cc1ccncc1-c1cc2cc(Nc3cn4c(n3)CC(=O)N(C)CC4)ncc2c(Cl)c1F [Compound 114, 2-((8-chloro-7-fluoro-6-(4-methylpyridin-3-yl)isoquinolin-3-yl)amino)-7-methyl-6,7-dihydro-5H-imidazo[1,2-d][1,4]diazepin-8(9H)-one] |
| 0.019 nM | Cc1c(N)cncc1-c1cc2cc(Nc3cc4n(n3)CC(=O)N(C(C)CO)CC4)ncc2cc1F (single isomer, unassigned) [Compound 149b] |
| 0.018 nM | Cc1c(-c2cc3cc(Nc4cc5n(n4)CC(=O)N(C(C)C)CC5O)ncc3cc2F)cnc2c1NCCO2 (single isomer, unassigned) [Compound 141b] |
| 0.013 nM | Cc1c(-c2cc3cc(Nc4cc5n(n4)CC(=O)N(C(C)CO)CC5)ncc3cc2F)cnc2c1NCCO2 (single isomer, unassigned) [Compound 148b] |
| 0.013 nM | Cc1c(-c2cc3cc(Nc4cc5n(n4)Cc4nncn4CC5)ncc3cc2F)cnc2c1NCCO2 [Compound 151, N-(7-fluoro-6-(8-methyl-2,3-dihydro-1H-pyrido[2,3-b][1,4]oxazin-7-yl)isoquinolin-3-yl)-5,6-dihydro-11H-pyrazolo[1,5-d][1,2,4]triazolo[4,3-a][1,4]diazepin-8-amine] |
| 176 nM | CNCc1cc(-c2ccc3cnc(Nc4cc5n(n4)CC(=O)N(C)CC5)cc3c2)c(F)cc1C [Compound 220, 2-((6-(2-fluoro-4-methyl-5-((methylamino)methyl)phenyl)isoquinolin-3-yl)amino)-6-methyl-5,6-dihydro-4H-pyrazolo[1,5-d][1,4]diazepin-7(8H)-one] |
| 0.037 nM | Cc1c(N)cncc1-c1cc2cc(Nc3cc4n(n3)CC(=O)N(C)CC4(C)O)ncc2cc1F (single isomer, unassigned) [Compound 185b] |
| 0.24 nM | Cc1c(-c2cc3cc(Nc4cc5n(n4)CC(=O)N(C)CC5)ncc3cc2F)cnc2c1CCCO2 [Compound 190, 2-((7-fluoro-6-(5-methyl-3,4-dihydro-2H-pyrano[2,3-b]pyridin-6-yl)isoquinolin-3-yl)amino)-6-methyl-5,6-dihydro-4H-pyrazolo[1,5-d][1,4]diazepin-7(8H)-one] |
